Source: the kinase profiling compilation of Christmann-Franck et al. (2016)
Values belong to the compound of their own block, whether it stands above or below them.

Assays:
Assay in all cases: radiometric filter-binding kinase assay
RPS6KA5 KD1 KD2 (human) = RPS6KA5 KD1 KD2 (human) (UniProt O75582)
MAPK9 (human) = MAPK9 (human) (UniProt P45984)
CSNK1D (human) = CSNK1D (human) (UniProt P48730)
IKBKB (human) = IKBKB (human) (UniProt O14920)
MAP3K5 (human) = MAP3K5 (human) (UniProt Q99683)
CSK (human) = CSK (human) (UniProt P41240)
[1] = tested on: PAK2 (human), Q13177 [T402E]
HIPK3 (human) = HIPK3 (human) (UniProt Q9H422)
EEF2K (human) = EEF2K (human) (UniProt O00418)
BRSK2 (human) = BRSK2 (human) (UniProt Q8IWQ3); settings: compound 10.0 µM
MAP2K2 (human) = MAP2K2 (human) (UniProt P36507)
PAK7 (human) = PAK7 (human) (UniProt Q9P286)
AURKA (human) = AURKA (human) (UniProt O14965)
MAPK1 (human) = MAPK1 (human) (UniProt P28482)
RPS6KA3 KD1 KD2 (human) = RPS6KA3 KD1 KD2 (human) (UniProt P51812)
MAPK3 (human) = MAPK3 (human) (UniProt P27361)
MAP2K6 (human) = MAP2K6 (human) (UniProt P52564)
MAP3K1 (human) = MAP3K1 (human) (UniProt Q13233)
TBK1 (human) = TBK1 (human) (UniProt Q9UHD2)
GSK3B (human) = GSK3B (human) (UniProt P49841)
EPHA4 (human) = EPHA4 (human) (UniProt P54764)
MKNK2 (human) = MKNK2 (human) (UniProt Q9HBH9)
SRPK1 (human) = SRPK1 (human) (UniProt Q96SB4)
FGFR1 (human) = FGFR1 (human) (UniProt P11362)
[2] = molecular target: STK11 CAB39 STRADA (human) (UniProt Q9Y376+Q7RTN6+Q15831)
MAPKAPK3 (human) = MAPKAPK3 (human) (UniProt Q16644)
PLK1 (human) = PLK1 (human) (UniProt P53350)
BRSK1 (human) = BRSK1 (human) (UniProt Q8TDC3)
NEK6 (human) = NEK6 (human) (UniProt Q9HC98)
MAPK8 (human) = MAPK8 (human) (UniProt P45983)
MAPK15 (human) = MAPK15 (human) (UniProt Q8TD08)
HIPK1 (human) = HIPK1 (human) (UniProt Q86Z02); settings: compound 10.0 µM
[3] = tested on: AKT1 (human), P31749 [S473D]
ERBB4 (human) = ERBB4 (human) (UniProt Q15303)
BTK (human) = BTK (human) (UniProt Q06187)

Chain of MAPK9 (human) (P45984 whole entry, looked up): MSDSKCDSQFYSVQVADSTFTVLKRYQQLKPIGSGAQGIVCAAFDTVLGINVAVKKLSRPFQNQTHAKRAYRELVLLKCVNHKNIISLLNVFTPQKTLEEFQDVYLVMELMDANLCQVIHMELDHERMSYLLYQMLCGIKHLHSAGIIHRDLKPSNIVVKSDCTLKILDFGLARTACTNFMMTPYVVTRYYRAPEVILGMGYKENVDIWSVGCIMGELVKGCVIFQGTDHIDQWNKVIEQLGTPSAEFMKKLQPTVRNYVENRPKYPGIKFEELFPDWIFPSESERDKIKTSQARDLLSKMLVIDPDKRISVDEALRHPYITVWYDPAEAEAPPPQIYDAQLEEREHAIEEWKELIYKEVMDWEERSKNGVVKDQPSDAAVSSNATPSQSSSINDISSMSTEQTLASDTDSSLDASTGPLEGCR
Chain of MAP3K1 (human) (Q13233 whole entry, looked up): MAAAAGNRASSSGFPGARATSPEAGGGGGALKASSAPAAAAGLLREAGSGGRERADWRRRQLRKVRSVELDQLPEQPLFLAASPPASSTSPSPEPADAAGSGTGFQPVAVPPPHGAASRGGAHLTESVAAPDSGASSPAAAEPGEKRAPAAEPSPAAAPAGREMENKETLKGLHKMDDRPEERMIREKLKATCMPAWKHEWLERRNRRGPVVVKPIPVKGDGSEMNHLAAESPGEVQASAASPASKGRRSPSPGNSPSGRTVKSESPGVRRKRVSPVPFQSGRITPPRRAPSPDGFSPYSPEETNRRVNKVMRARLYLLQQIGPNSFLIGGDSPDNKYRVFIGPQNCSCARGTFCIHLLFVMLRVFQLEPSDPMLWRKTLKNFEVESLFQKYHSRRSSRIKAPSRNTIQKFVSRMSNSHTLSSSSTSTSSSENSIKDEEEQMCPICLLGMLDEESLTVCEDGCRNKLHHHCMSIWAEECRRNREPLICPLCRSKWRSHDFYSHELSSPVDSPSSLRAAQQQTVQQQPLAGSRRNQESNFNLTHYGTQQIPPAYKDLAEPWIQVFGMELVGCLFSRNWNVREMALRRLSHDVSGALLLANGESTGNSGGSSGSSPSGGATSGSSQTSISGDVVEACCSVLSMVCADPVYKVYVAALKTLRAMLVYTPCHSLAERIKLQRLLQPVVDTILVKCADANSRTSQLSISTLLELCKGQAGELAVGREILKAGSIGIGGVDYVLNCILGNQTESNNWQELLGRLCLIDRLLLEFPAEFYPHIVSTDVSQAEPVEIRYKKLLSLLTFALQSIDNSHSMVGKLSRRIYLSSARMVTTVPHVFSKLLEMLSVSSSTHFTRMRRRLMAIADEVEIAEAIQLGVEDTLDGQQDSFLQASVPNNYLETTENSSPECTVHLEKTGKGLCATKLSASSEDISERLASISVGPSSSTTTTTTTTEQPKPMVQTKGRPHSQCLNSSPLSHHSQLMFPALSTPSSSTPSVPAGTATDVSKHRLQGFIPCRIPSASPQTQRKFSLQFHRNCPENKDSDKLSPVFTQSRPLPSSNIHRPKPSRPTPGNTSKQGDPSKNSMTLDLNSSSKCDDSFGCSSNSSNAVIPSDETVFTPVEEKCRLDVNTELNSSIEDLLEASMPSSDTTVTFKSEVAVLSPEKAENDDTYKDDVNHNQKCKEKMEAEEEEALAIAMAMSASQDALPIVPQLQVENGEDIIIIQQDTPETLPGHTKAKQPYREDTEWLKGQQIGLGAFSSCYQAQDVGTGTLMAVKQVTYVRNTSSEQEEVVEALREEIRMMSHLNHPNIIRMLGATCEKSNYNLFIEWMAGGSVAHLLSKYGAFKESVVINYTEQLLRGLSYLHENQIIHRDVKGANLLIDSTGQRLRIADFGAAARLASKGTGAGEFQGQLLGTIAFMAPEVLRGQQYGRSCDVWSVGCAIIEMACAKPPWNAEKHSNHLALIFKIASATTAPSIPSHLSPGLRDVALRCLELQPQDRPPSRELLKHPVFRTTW
Chain of PAK7 (human) (Q9P286 whole entry, looked up): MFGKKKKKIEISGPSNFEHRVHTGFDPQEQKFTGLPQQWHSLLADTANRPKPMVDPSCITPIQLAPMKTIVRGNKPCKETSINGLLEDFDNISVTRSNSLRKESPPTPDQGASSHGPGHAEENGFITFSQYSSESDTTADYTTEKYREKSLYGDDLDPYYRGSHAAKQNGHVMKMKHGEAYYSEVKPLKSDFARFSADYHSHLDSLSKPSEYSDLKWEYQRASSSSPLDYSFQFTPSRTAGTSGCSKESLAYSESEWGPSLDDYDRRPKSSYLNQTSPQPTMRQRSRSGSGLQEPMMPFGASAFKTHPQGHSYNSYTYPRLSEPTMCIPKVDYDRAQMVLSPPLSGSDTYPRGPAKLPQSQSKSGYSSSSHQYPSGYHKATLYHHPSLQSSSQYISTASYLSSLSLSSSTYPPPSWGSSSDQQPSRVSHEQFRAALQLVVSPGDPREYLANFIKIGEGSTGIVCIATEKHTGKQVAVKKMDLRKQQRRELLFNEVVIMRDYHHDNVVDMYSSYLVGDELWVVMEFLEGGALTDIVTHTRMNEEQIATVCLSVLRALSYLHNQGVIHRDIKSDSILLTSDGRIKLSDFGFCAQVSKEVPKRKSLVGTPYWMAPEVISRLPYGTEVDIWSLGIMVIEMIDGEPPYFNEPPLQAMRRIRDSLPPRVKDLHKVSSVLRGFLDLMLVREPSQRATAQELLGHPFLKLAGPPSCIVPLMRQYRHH
Chain of AKT1 (human), P31749 [S473D] (P31749 whole entry S473D, looked up): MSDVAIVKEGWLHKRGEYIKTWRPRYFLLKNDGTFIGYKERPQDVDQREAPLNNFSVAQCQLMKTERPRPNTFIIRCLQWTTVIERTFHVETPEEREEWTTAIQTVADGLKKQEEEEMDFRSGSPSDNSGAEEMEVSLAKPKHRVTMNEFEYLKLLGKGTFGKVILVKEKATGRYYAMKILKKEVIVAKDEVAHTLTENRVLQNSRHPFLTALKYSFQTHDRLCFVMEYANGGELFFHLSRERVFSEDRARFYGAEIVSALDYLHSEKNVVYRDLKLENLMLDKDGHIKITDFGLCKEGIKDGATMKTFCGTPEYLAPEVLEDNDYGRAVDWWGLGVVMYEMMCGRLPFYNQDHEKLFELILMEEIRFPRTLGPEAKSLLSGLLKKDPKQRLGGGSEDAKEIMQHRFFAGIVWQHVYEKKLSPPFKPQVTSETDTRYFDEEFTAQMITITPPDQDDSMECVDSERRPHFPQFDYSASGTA
Chain of FGFR1 (human) (P11362 whole entry, looked up): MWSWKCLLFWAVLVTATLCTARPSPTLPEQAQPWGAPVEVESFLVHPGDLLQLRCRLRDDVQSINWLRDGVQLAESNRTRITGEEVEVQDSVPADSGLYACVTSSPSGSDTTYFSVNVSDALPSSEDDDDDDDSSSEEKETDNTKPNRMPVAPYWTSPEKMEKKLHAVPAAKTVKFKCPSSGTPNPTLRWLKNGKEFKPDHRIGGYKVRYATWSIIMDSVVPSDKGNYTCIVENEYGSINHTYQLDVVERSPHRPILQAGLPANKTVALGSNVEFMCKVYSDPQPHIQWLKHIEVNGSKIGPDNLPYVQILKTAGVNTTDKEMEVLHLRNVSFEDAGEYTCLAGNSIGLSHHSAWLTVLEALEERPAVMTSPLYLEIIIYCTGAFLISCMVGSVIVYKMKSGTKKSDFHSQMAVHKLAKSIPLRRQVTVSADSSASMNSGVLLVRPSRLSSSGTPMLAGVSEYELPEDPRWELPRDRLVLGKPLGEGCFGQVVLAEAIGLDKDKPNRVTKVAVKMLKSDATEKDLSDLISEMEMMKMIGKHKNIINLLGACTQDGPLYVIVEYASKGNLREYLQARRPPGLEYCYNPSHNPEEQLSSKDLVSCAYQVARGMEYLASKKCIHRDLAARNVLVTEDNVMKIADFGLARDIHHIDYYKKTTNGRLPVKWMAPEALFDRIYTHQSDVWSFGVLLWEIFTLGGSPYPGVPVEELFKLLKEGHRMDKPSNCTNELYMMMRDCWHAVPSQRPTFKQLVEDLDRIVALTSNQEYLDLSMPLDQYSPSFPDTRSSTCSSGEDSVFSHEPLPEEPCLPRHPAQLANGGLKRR
Chain of RPS6KA5 KD1 KD2 (human) (O75582 whole entry, looked up): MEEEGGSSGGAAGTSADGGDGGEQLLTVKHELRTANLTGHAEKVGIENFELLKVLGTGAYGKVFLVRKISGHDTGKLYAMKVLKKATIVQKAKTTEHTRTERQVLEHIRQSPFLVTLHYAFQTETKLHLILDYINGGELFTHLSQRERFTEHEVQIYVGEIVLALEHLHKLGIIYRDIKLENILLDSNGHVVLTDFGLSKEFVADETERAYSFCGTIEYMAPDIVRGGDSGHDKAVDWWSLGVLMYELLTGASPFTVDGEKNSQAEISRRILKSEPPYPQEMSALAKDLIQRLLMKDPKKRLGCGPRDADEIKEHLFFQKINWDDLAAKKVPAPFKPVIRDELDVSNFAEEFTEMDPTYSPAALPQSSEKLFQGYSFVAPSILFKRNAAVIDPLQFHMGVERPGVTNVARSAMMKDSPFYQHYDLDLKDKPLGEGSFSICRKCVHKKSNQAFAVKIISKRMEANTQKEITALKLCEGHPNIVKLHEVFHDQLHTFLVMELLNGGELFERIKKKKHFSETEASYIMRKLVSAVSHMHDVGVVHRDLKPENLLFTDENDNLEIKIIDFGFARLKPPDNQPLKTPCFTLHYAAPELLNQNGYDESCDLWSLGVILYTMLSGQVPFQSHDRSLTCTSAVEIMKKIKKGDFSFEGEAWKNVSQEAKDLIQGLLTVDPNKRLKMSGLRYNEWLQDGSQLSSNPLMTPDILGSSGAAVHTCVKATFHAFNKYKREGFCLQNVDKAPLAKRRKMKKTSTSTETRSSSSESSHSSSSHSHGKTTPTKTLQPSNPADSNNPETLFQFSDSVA
Chain of NEK6 (human) (Q9HC98 whole entry, looked up): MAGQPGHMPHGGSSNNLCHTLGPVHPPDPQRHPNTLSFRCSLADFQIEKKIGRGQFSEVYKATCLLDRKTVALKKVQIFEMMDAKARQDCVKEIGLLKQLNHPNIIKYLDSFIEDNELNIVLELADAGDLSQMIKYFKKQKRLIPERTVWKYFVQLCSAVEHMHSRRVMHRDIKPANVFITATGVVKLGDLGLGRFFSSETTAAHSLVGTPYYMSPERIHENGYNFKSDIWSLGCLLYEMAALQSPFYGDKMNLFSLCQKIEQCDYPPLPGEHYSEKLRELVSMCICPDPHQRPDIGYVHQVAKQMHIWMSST

residual activity (RPS6KA5 KD1 KD2 (human); compound 10.0 µM): 83%
residual activity (RPS6KA5 KD1 KD2 (human); compound 100.0 µM): 75%
residual activity (MAPK9 (human); compound 10.0 µM): 88%
residual activity (CSNK1D (human); compound 10.0 µM): 99%
residual activity (CSNK1D (human); compound 100.0 µM): 91%
residual activity (IKBKB (human); compound 10.0 µM): 96%
residual activity (MAP3K5 (human); compound 10.0 µM): 91%
residual activity (CSK (human); compound 10.0 µM): 69%
residual activity (CSK (human); compound 100.0 µM): 67%
residual activity ([1]; compound 10.0 µM): 87%
residual activity (HIPK3 (human); compound 10.0 µM): 103%
residual activity (EEF2K (human); compound 10.0 µM): 83%
residual activity (BRSK2 (human)): 98%
residual activity (MAP2K2 (human); compound 10.0 µM): 81%
residual activity (PAK7 (human); compound 10.0 µM): 73%
residual activity (AURKA (human); compound 10.0 µM): 99%
residual activity (MAPK1 (human); compound 10.0 µM): 91%
residual activity (MAPK1 (human); compound 100.0 µM): 82%
residual activity (RPS6KA3 KD1 KD2 (human); compound 10.0 µM): 72%
residual activity (MAPK3 (human); compound 10.0 µM): 102%
residual activity (MAP2K6 (human); compound 10.0 µM): 94%
residual activity (MAP3K1 (human); compound 10.0 µM): 100%
residual activity (TBK1 (human); compound 10.0 µM): 94%
residual activity (GSK3B (human); compound 10.0 µM): 88%
residual activity (GSK3B (human); compound 100.0 µM): 66%
residual activity (EPHA4 (human); compound 10.0 µM): 108%
residual activity (MKNK2 (human); compound 10.0 µM): 104%
residual activity (SRPK1 (human); compound 10.0 µM): 88%
residual activity (FGFR1 (human); compound 10.0 µM): 118%
residual activity ([2]; compound 10.0 µM): 81%
residual activity (MAPKAPK3 (human); compound 10.0 µM): 86%
residual activity (PLK1 (human); compound 10.0 µM): 99%
residual activity (BRSK1 (human); compound 10.0 µM): 106%
residual activity (NEK6 (human); compound 10.0 µM): 107%
residual activity (NEK6 (human); compound 100.0 µM): 85%
residual activity (MAPK8 (human); compound 10.0 µM): 92%
residual activity (MAPK8 (human); compound 100.0 µM): 78%
residual activity (HIPK1 (human)): 88%
residual activity ([3]; compound 10.0 µM): 95%
residual activity ([3]; compound 100.0 µM): 88%
residual activity (ERBB4 (human); compound 10.0 µM): 87%
residual activity (BTK (human); compound 10.0 µM): 82%
SMILES: Cc1ccc2c(c1)C(=O)[C@@]1(O)CCN(c3ccccc3)C1=N2
residual activity (MAPK15 (human); compound 10.0 µM): 89%

residual activity (RPS6KA5 KD1 KD2 (human); compound 1.0 µM): 78%
residual activity (RPS6KA5 KD1 KD2 (human); compound 10.0 µM): 58%
residual activity (MAPK9 (human); compound 1.0 µM): 95%
residual activity (MAPK9 (human); compound 10.0 µM): 90%
residual activity (CSNK1D (human); compound 1.0 µM): 89%
residual activity (CSNK1D (human); compound 10.0 µM): 91%
residual activity (IKBKB (human); compound 1.0 µM): 103%
residual activity (IKBKB (human); compound 10.0 µM): 78%
residual activity (MAP3K5 (human); compound 1.0 µM): 83%
residual activity (MAP3K5 (human); compound 10.0 µM): 69%
residual activity (CSK (human); compound 1.0 µM): 81%
residual activity (CSK (human); compound 10.0 µM): 74%
residual activity ([1]; compound 1.0 µM): 94%
residual activity ([1]; compound 10.0 µM): 111%
residual activity (HIPK3 (human); compound 1.0 µM): 102%
residual activity (HIPK3 (human); compound 10.0 µM): 61%
residual activity (EEF2K (human); compound 1.0 µM): 105%
residual activity (EEF2K (human); compound 10.0 µM): 98%
residual activity (BRSK2 (human)): 30%
residual activity (MAP2K2 (human); compound 1.0 µM): 75%
residual activity (MAP2K2 (human); compound 10.0 µM): 57%
residual activity (PAK7 (human); compound 1.0 µM): 80%
residual activity (PAK7 (human); compound 10.0 µM): 58%
residual activity (AURKA (human); compound 1.0 µM): 29%
residual activity (AURKA (human); compound 10.0 µM): 6%
residual activity (MAPK1 (human); compound 1.0 µM): 104%
residual activity (MAPK1 (human); compound 10.0 µM): 88%
residual activity (RPS6KA3 KD1 KD2 (human); compound 1.0 µM): 82%
residual activity (RPS6KA3 KD1 KD2 (human); compound 10.0 µM): 57%
residual activity (MAPK3 (human); compound 1.0 µM): 101%
residual activity (MAPK3 (human); compound 10.0 µM): 77%
residual activity (MAP2K6 (human); compound 1.0 µM): 91%
residual activity (MAP2K6 (human); compound 10.0 µM): 84%
residual activity (MAP3K1 (human); compound 1.0 µM): 77%
residual activity (MAP3K1 (human); compound 10.0 µM): 54%
residual activity (TBK1 (human); compound 1.0 µM): 21%
residual activity (TBK1 (human); compound 10.0 µM): 17%
residual activity (GSK3B (human); compound 1.0 µM): 90%
residual activity (GSK3B (human); compound 10.0 µM): 68%
residual activity (EPHA4 (human); compound 1.0 µM): 57%
residual activity (EPHA4 (human); compound 10.0 µM): 45%
residual activity (MKNK2 (human); compound 1.0 µM): 47%
residual activity (MKNK2 (human); compound 10.0 µM): 35%
residual activity (SRPK1 (human); compound 1.0 µM): 93%
residual activity (SRPK1 (human); compound 10.0 µM): 79%
residual activity (FGFR1 (human); compound 1.0 µM): 49%
residual activity (FGFR1 (human); compound 10.0 µM): 49%
residual activity ([2]; compound 1.0 µM): 80%
residual activity ([2]; compound 10.0 µM): 62%
residual activity (MAPKAPK3 (human); compound 1.0 µM): 93%
residual activity (MAPKAPK3 (human); compound 10.0 µM): 67%
residual activity (PLK1 (human); compound 1.0 µM): 65%
residual activity (PLK1 (human); compound 10.0 µM): 55%
residual activity (BRSK1 (human); compound 1.0 µM): 40%
residual activity (NEK6 (human); compound 1.0 µM): 93%
residual activity (NEK6 (human); compound 10.0 µM): 77%
residual activity (MAPK8 (human); compound 1.0 µM): 92%
residual activity (MAPK8 (human); compound 10.0 µM): 87%
residual activity (HIPK1 (human)): 58%
residual activity ([3]; compound 1.0 µM): 98%
residual activity ([3]; compound 10.0 µM): 85%
residual activity (ERBB4 (human); compound 1.0 µM): 78%
residual activity (ERBB4 (human); compound 10.0 µM): 84%
residual activity (BTK (human); compound 1.0 µM): 63%
residual activity (BTK (human); compound 10.0 µM): 45%
SMILES: COc1cc2ncn(-c3cc(OCc4ccccc4S(C)(=O)=O)c(C#N)s3)c2cc1OC
residual activity (MAPK15 (human); compound 1.0 µM): 65%
residual activity (MAPK15 (human); compound 10.0 µM): 15%
